Measurements reported in patent publication US6673354B2, “Compositions and methods for treating papillomavirus-infected cells” (priority 1998, dated 2004).
Where no end group is shown, it is not given here.

How the values were obtained:
[1] = system: in vitro HPV16 DNA replication; assay: In vitro replication of HPV16 DNA (293 cell extract, EE-E1, HPV16 E2); format: biochemical; conditions: 40 ng EE-E1 and 6 ng HPV16 E2, FIG. 7
Method: In vitro replication reactions. In vitro replication reactions were essentially as described by Kuo et al. (18) in 25 μl reactions at 37° C. for indicated times. Standard reactions were for 2 hours, and were terminated by addition of 200 μl stop solution (20 mM Tris-HCl pH 7.5, 10 mM EDTA, 0.1% SDS, and 20 μg/ml RNase A). After incubation at 37° C. for 15 minutes, proteinase K was added (200 μg/ml) and incubation was continued 30 minutes. Samples were extracted with 250 μl phenol/chloroform/isoamyl alcohol (25:24:1), ethanol precipitated, washed with 70% ethanol, dried, resuspended in 20-30μl TE, and analyzed on a 0.8% agarose gel (TAE). The agarose gel was dried onto Hybond N+ membrane (Amersham), and replicated DNA was visualized by autoradiography. Bands were quantitated by Phosphorimager analysis. Replication templates were pKS7838-7905 (nt7838-7905/1-130) containing the HPV16 replication origin, and pUC7874-99 containing the HPV11 origin of replication (nt7874-7933/1-99). pUC7874-99 was a generously provided by Dr. Louise Chow.
We sought to establish a system for the study of HPV16 DNA replication in vitro, and to determine whether specific interaction between HPV16 E1 and E2 was required for HPV16 DNA replication in this system. […] As has been documented for other papillomavirus E1 proteins, some replication was observed using relatively large amounts of E1 in the absence of E2 (lanes 2 through 7) (6, 16, 22, 33, 40, 48). […] Replication in this assay is ori-dependent, since the small amount of replication of the pKS plasmid lacking the HPV16 origin detected at high concentrations of EE-E1 (FIG. 3B, lanes 1-6) was not stimulated by E2 (FIG. 1B, lanes 7-12).
Since the E2N-WP23 and E2N-WP 15 peptides could inhibit interaction between […] E1 and E2, their ability to inhibit in vitro HPV16 DNA replication was also tested (FIGS. 7A and 7B).

[2] = molecular target: T1, interaction between HPV16 E1 and E2 (Human papillomavirus type 16, UniProt P03114); assay: In vitro HPV E1-E2 binding assay (co-immunoprecipitation / Western blot), HPV16 E1 and HPV16 E2; conditions: increasing peptide concentrations, FIG. 6A
T1 construct: made in house; host or cells: Hi-Five insect cells infected with recombinant baculovirus (pVL1392); nuclear extracts
T1 sequence (P03114 whole entry, looked up): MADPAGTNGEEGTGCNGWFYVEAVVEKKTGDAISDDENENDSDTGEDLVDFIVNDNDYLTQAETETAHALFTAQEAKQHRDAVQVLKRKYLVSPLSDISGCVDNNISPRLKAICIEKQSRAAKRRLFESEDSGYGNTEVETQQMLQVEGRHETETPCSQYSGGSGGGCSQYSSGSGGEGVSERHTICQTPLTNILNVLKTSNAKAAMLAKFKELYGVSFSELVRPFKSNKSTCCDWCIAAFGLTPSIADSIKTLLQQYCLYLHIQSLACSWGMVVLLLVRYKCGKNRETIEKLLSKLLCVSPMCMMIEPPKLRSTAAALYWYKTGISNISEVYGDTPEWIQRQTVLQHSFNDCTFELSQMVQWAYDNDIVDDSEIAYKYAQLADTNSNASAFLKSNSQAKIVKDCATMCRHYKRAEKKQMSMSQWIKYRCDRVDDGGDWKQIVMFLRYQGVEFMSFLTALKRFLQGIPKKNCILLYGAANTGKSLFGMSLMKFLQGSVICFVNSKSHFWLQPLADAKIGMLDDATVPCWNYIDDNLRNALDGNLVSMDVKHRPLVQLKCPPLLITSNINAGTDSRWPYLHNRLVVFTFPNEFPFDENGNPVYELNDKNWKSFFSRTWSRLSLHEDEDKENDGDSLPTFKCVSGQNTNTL
Method: (§1) In vitro HPV E1-E2 binding assay. 300-500 ng protein from HPV16 or HPV11 EE-E1 expressing recombinant baculovirus infected cell nuclear extracts and 80-120 ng from HPV E2 baculovirus infected cell nuclear extracts were incubated in 500 μl NET-gel buffer (50 mM Tris-HCl pH7.5, 150 mM NaCl, 0.1% NP-40, 1 mM EDTA, 0.25% gelatin) at 4° C. for one hour. 1-2 μg anti-EE monoclonal antibody was added and incubated with shaking at 4° C. for one hour. Immune complexes were precipitated with protein-G agarose beads and washed twice for 30 minutes with ice cold NET-gel buffer. Precipitated proteins were detected by Western blot using appropriate primary antibodies and anti-rabbit IgG HRP or anti-mouse IgG HRP (Amersham). Membranes were blocked for one hour in TNET (10 mM Tris 7.5, 2.5 mM EDTA, 50 mM NaCl, 0.1% Tween-20) containing 4% (w/v) dry milk. Washes and antibody reactions were carried out in TNET, and proteins were visualized by chemiluminescence (Reneaissance ECL, NEN) and autoradiography. Bands were quantitated using the NIH image program.
(§2) Therefore, we reasoned that a peptide encompassing this domain of HPV16 E2 might inhibit interaction between HPV16 E1 and E2, thereby inhibiting HPV16 DNA replication (FIG. 5). In order to test this possibility, HPV16 E2 and epitope tagged full length HPV16 E1 (EE16-E1) proteins were expressed separately using baculovirus vectors. EE-E1 and associated E2 proteins were immunoprecipitated using an anti-EE epitope monoclonal antibody. Precipitated E2 was detected by Western blot using polyclonal antiserum raised to the DNA binding domain of HPV16 E2 (35). As shown in lane 2 of FIG. 6A, E2 co-immunoprecipitated with EE16-E1, but was not precipitated by the EE epitope antibody in the absence of EE16-E1 (lane 1). Peptides encompassing HPV16 E2 amino acids 29-51 (E2N-WP23) or residues 33-47 (E2N-WP15) of HPV16 E2 were then tested for inhibition of E1-E2 interaction. These peptide sequences were derived from the sequence of HPV16 E2, and were based on an alignment of amino terminal residues that are conserved among the papillomavirus E2 proteins (FIG. 5). […] Both the HPV16 E2 protein itself and the E2 derived peptides act specifically in these assays, since the E39A replication defective HPV16 E2 mutant bound only slightly to EE16-E1 (lanes 14). […] These peptides are named E2N-MP23 and E2N-MP15, respectively (see FIG. 5). […] We have previously shown that a domain spanning amino acids 421-647 of the HPV16 E1 carboxy terminus is necessary and sufficient for E2 interaction (45).

HPV-16 E1-E2 interaction = molecular target: T2, HPV-16 E1-E2 interaction (Human papillomavirus type 16, UniProt P03114); assay: In vitro HPV E1-E2 competition binding assay (HPV-16 EE-E1C and HPV-16 E2); conditions: 10 μM, 20 μM, and 40 μM peptide, FIG. 14
T2 construct: The carboxy terminus of HPV16-E1, from amino acid 424 to 649, is the minimal domain; made in house; host or cells: E2: nuclear extract of baculovirus-infected Hi-Five cells
T2 sequence (P03114 whole entry, looked up): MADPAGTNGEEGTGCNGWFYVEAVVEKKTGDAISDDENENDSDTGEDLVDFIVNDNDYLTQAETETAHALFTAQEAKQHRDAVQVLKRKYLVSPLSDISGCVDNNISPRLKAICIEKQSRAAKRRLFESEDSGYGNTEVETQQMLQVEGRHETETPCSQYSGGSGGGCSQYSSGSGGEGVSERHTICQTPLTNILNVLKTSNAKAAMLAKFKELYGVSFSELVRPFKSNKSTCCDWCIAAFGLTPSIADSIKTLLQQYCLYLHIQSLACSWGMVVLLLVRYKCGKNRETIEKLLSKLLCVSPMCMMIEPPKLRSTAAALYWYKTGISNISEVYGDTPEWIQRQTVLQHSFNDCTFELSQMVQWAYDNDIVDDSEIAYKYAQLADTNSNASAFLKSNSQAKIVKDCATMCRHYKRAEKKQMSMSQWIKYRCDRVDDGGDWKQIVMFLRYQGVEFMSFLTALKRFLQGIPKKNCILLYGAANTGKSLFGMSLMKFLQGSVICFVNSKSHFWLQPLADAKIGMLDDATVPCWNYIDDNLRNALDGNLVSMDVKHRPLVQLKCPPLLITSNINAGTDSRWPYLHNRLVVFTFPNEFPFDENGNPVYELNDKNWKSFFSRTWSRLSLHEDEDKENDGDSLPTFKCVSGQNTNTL
Method: Use of EE-EIC. The carboxy terminus of HPV16-E1, from amino acid 424 to 649, is the minimal domain necessary for interaction with E2 (Yasugi et al. 1997). An epitope tagged form of this domain (EE-EIC) was used in the E1-E2 interaction assays presented here.
In vitro HPV EI-E2 competition binding assay. HPV-16 EE-EIC (240 ng) in 500 1 NET gel buffer (50 mM Tris-HCI [pH 7.5 ], 150 mM NaCl, 0.1% NP-40, 1 mM EDTA, 0.25% gelatin) were pre-incubated with 0 μM, 10 μM, 20 μM, or 40 μM peptide for 10 minutes on ice. The final concentration of DMSO, the peptide solvent, was kept constant in all samples. Nuclear extract containing HPV-16 E2 was then added, and the mixture was incubated with shaking at 4° C. for 1 hour. Anti-EE monoclonal antibody (1 mg/ml) (BAbCo) was added, and the mixture was incubated with shaking for 30 minutes. Immune complexes were precipitated with protein G-agarose beads for an additional 30 minutes at 4° C. The beads were washed with 500 l ice-cold NET-gel buffer three times.

[3] = molecular target: T3, interaction between HPV16 E1 and E2 (Human papillomavirus type 16, UniProt P03114); assay: In vitro HPV E1-E2 binding assay (co-immunoprecipitation / Western blot), HPV16 E1 and HPV16 E2
T3 construct: made in house; host or cells: Hi-Five insect cells infected with recombinant baculovirus (pVL1392); nuclear extracts
Method: as §1, §2

With “E2N-MP23: 23-mer peptide of HPV16 E2 aa 29-51 containing alanine at the position analogous to E39 (HIDYWKHMRLACAIYYKAREMGF; UniProt P03120 29-51, looked up, variant E39A)” the “inhibition of in vitro HPV16 DNA replication” value [1] was “wild type peptides inhibited replication much more effectively than the respective E39A substituted analog” and the “inhibition of HPV16 E1-E2 interaction” value [2] was “did not inhibit E1-E2 interaction at concentrations at which the wild type peptide could do so”.

With “GRKKRRQRRRPPQCGGWKHMRLECAIYYKAR (cysteine pairing not given here) [Tat-WP]” the “inhibition of HPV-16 E1-E2 interaction (E1-E2 complex formation)” value (HPV-16 E1-E2 interaction) was “not inhibited”.

In the case of HIDYWKHMRLECAIYYKAREMGF [E2N-WP23], the “inhibition of in vitro HPV16 DNA replication” value [1] is reported as “could effectively inhibit in vitro replication”, the “inhibition of HPV16 E1-E2 interaction” value ([3]; increasing peptide concentrations, FIG. 6A) is reported as “inhibitory effects” and the “mode of inhibition of E1-E2 interaction” value ([3]; inhibition plotted as a function of substrate concentration (data not shown)) is reported as “competitive inhibition”.

“ERQIKIWFQNRRMKWKKGGWKHMRLECAIYYKAR [Ant-WP]” was tested, and the “inhibition of HPV-16 E1-E2 interaction (E1-E2 complex formation)” value (HPV-16 E1-E2 interaction) was “comparable to that of wild-type peptide”.
